Experimental data reported in PMC5442318, “Hundreds of dual-stage antimalarial molecules discovered by a functional gametocyte screen” (Nature Communications, 2017).
Read-outs that look alike come from different tables or passages of the source.

How the values were obtained:
[1] = tested on: P. falciparum stage V female gametocytes; experiment: P. falciparum female gametocyte activation assay (Pf FGAA), 24 h or 48 h preincubation, Pfs25 expression readout; assay type: cell-based, Plasmodium falciparum NF54; conditions: mean, read-out: Gametocytes mean Pf FGAA IC50
How it was run: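 Female activation, triggered by xanthurenic acid and cooling, was scored by imaging Cy3-labelled anti-Pfs25 female gametes after 24 h at 26 °C. Beforehand, purified NF54 stage V gametocytes had been incubated with compound for either 24 h or 48 h (37 °C, 3% O2). Values are pIC50 from full-curve regression.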

[2] = tested on: P. falciparum stages IV–V gametocytes; experiment: Gametocytocidal ATP-depletion assay (gametocyte ATP bioluminescence); assay type: cell-based, Plasmodium falciparum
How it was run: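 Read-out is luciferase luminescence of parasite ATP (BacTiter-Glo), standing in for viability. Double-purified mature stage IV–V gametocytes, 12,500 per well, were exposed 48 h at 37 °C in low-O2 gas; screening concentration 2 μM.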

HepG2 cells = experiment: HepG2 cytotoxicity assay; assay type: cell-based
How it was run: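 Cell viability is measured by CellTiter-Glo luminescence. Signal is developed at room temperature and read 10 min after adding the reagent, with plates and reagent first equilibrated for 30 min.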

[3] = tested on: P. falciparum asexual blood stages; conditions: read-out: Pf Asexual blood stages XC50, cited from earlier work
[4] = TCAMS data, ref 1 (Gamo et al., 2010)
[5] = P. falciparum female gametocytes
[6] = TCAMS asexual blood stage data, ref 1 (Gamo, F. J. et al., Nature 465, 305-310, 2010)
[7] = P. falciparum female gametocyte activation assay

Compound	IC50 [1] [nM]	Gametocytes mean ATP inhibition at 2µM (%) [2] [%]	HepG2 cells mean TOX50 (HepG2 cells; mean) [µM]	IC50 [3, 4] [nM]	IC50 [1, 5] [nM]	Gametocytes mean ATP inhibition at 2µM [2] [%]	HepG2 cells mean TOX50 (HepG2 cells; HepG2 cells; mean) [µM]	IC50 [3, 6] [nM]	IC50 [1, 7] [nM]	HepG2 cells mean TOX50 (HepG2 cells; mean; HepG2 cells) [µM]
COc1cc2nc(N3CCC(CCCC4CCNCC4)CC3)nc(NCc3ccccn3)c2cc1OC.O=C(O)C(F)(F)F [TCMDC-138494]	6860	35.38	18.51	760	–	–	–	–	–	–
CS(=O)(=O)O.FC(F)(F)COc1ccc2ccccc2c1CNCCCCCCNCc1c(OCC(F)(F)F)ccc2ccccc12 [TCMDC-137816]	1090	27.96	1.84	350	–	–	–	–	–	–
O=S(=O)(Nc1cccc(F)c1CNCc1ccccn1)c1ccc(Cl)c(Cl)c1 [TCMDC-132598]	–	–	–	–	1360	51.32	20.42	890	–	–
c1ccc(-c2nc(Nc3nc4ccccc4[nH]3)[nH]c2-c2ccccc2)cc1 [TCMDC-139099]	580	51.90	10.98	620	–	–	–	–	–	–
COc1ccc(CNCCCCCCNCc2ccc(OC)c3ccccc23)c2ccccc12.Cl [TCMDC-137631]	720	16.64	1.82	580	–	–	–	–	–	–
CN1CCN(CCCNCc2cccc(-c3ccc(CNCCc4ccccc4)cc3)c2)CC1 [TCMDC-140643]	1910	22.49	7.92	780	–	–	–	–	–	–
CC(C)(C)Nc1cc(C2CC2)nc(-c2ccccn2)n1 [TCMDC-124453]	–	–	–	–	100	81.87	>100	680	–	–
CN(CCc1ccccc1)c1ncc(-c2cccc(CNCCC3CCCN3C)c2)cn1 (stereo not drawn) [TCMDC-133143]	–	–	–	–	1360	11.85	2.88	870	–	–
COc1ccc(CCNCCCCCCNCCc2ccc(Cl)cc2)c(Cl)c1OC.Cl [TCMDC-131272]	–	–	–	–	830	24.24	5.54	820	–	–
CC1CCCCN1CCCNc1nc(NCc2ccccc2)c2ccccc2n1 (stereo not drawn) [TCMDC-137771]	7250	38.73	14.62	950	–	–	–	–	–	–
CCn1c(-c2nonc2N)nc2c(-c3cccc(NC(=O)Nc4ccc(C(F)(F)F)cc4)c3)ncc(OCCCN)c21.O=C(O)C(F)(F)F [TCMDC-136179]	910	-5.44	5.62	1050	–	–	–	–	–	–
CC(C)(C)c1ccc(CNC(=O)c2ccc(CNC3CCC(N)CC3)s2)cc1 (stereo not drawn) [TCMDC-140777]	2440	10.64	8.95	530	–	–	–	–	–	–
CN1CCN(CCCN(Cc2cccc(-c3ccc(CNC4CCCC4)cc3)c2)C(=O)/C=C/c2ccccc2)CC1.O=C(O)C(F)(F)F [TCMDC-140544]	1360	0.64	7.70	750	–	–	–	–	–	–
Cl.O=C(NCCCCN1CCC(c2ccc3c(c2O)CCCC3)CC1)c1ccc(NC(=O)c2ccc(Cl)cc2)cc1 [TCMDC-138645]	1490	-0.21	3.80	240	–	–	–	–	–	–
CC(C)(CNC(=O)[C@H]1CCCN1)c1nc(-c2ccc(Cl)c(O)c2)c(-c2ccncc2)[nH]1.Cl [TCMDC-141060]	–	–	–	–	–	-7.23	–	1270	1210	32.74
Cc1ccnc(NC(c2cccc(Cl)c2Cl)c2ccc3cccnc3c2O)c1 (stereo not drawn) [TCMDC-123997]	–	–	–	–	1910	90.58	45.69	1000	–	–
ON=C1CCc2cc(-c3cc(-c4ccc(OC5CCNCC5)cc4)oc3-c3ccncc3)ccc21 [TCMDC-141381]	–	–	–	–	–	40.68	–	160	200	5.01
CCCCOc1ccc(CNCCCCCCNCc2ccc(OCCCC)c3ccccc23)c2ccccc12.CS(=O)(=O)O [TCMDC-137281]	400	94.34	2.29	1130	–	–	–	–	–	–
CC(C)(C)c1ccc(CN2CCC(CNC(=O)c3cc(-c4ccccc4Cl)cs3)C2)cc1.O=C(O)C(F)(F)F (stereo not drawn) [TCMDC-134445]	–	–	–	–	1010	-16.96	6.17	860	–	–
Cc1c(Cn2nc(Cl)c(N3CCNCC3)cc2=O)cccc1NC(=O)Nc1ccc(-c2ccccc2)cc1.O=C(O)C(F)(F)F [TCMDC-141699]	–	–	–	–	–	-8.75	–	1380	4910	4.22
ON=C(c1nc2ccccc2[nH]1)c1nc2ccccc2[nH]1 [TCMDC-125758]	–	–	–	–	330	89.28	4.96	1090	–	–
CCCCOc1c(CCNCCCCNCCc2cc(OC)c3ccccc3c2OCCCC)cc(OC)c2ccccc12.CS(=O)(=O)O [TCMDC-137848]	610	84.96	1.97	930	–	–	–	–	–	–
Cc1ccc(Cn2nc(N3CCNCC3)ccc2=O)cc1NC(=O)Nc1ccc(-c2ccccc2)cc1.O=C(O)C(F)(F)F [TCMDC-132580]	–	–	–	–	1940	1.45	7.42	840	–	–
COc1ccc(Nc2nccc(-c3ccc4ccnc(NCCCCN)c4c3)n2)cc1 [TCMDC-136642]	1510	21.11	14.29	750	–	–	–	–	–	–
CC(CCCCCC(=O)Nc1ccc(CC(C)NCCc2cccc(Cl)c2)cc1)NCCc1cccc(Cl)c1 (stereo not drawn) [TCMDC-139800]	1390	20.09	2.55	950	–	–	–	–	–	–
COc1cc2nc(N3CCN(c4nc(N)c5cc(OC)c(OC)cc5n4)CC3)nc(N)c2cc1OC [TCMDC-123865]	–	–	–	–	580	90.91	52.49	150	–	–
CCCOc1ccc2ccccc2c1CNCCCCCCNCc1c(OCCC)ccc2ccccc12.CS(=O)(=O)O [TCMDC-137966]	1030	42.35	2.00	790	–	–	–	–	–	–
NCc1ccc(CNCc2ccc(-c3ccc(-c4nc5cc(C(F)(F)F)ccc5[nH]4)s3)cc2)cc1.O=C(O)C(F)(F)F [TCMDC-132814]	–	–	–	–	1020	6.11	8.32	160	–	–
CC(C)N1CCN(C(CN2CCN(CCCOc3ccc(-c4ccccc4)cc3)CC2)c2ccc(F)cc2)CC1.Cl (stereo not drawn) [TCMDC-135497]	–	–	–	–	1420	6.50	2.29	680	–	–
CCc1c(CCNCCCCCCNCCc2ccc3c(c2C)OCO3)ccc2c1OCO2.Cl [TCMDC-132093]	–	–	–	–	1020	10.41	3.89	610	–	–
